# How the values were obtained:
# [1] = biological target: human recombinant sodium ion channel Nav1.5 (hNav1.5), late current (Homo sapiens, UniProt Q14524); assay: Whole cell patch clamp, late sodium current of hNav1.5 in HEK293 cells (veratridine-activated)
# Procedure: (§1) To study the […] Nav1.5 channel, a cell line stably expressing […] (Gene ID: 6331, https://www.ncbi.nlm.nih.gov/gene/6331) encoding a human Nav1.5 channel in HEK293 cells was used.
# (§2) Pulse-protocol uses a protocol that gives a −15 mV stimulus for 385 ms at a holding voltage of −120 mV, and then returns to a holding voltage of −120 mV, and the current generated with the −15 mV stimulus (fast current) and the current just before returning to −120 mV (late current) was measured.
# (§3) The composition of the external solution used in the experiment is as follows: 137 mM NaCl, 4 mM KCl, 1.8 mM CaCl2) mM, 1 mM MgCl2, 10 mM HEPES, 11 mM D-Glucose, pH 7.4 (NaOH), 280 mOsm.
# (§4) The composition of the internal solution used in the experiment is as follows: 130 mM CsCl, 1 mM MgCl2, 7 mM NaCl, 5 mM HEPES, 5 mM EGTA, pH 7.2 (CsOH), 270 mOsm.
# [2] = biological target: hNav1.5 sodium channel, late current (Homo sapiens, UniProt Q14524); assay: as above; conditions: human, pH 7.4
# Procedure: as §1, §2, §3, §4
# [3] = biological target: hNav1.5 sodium channel, fast current (Homo sapiens, UniProt Q14524); assay: Whole cell patch clamp, fast sodium current of hNav1.5 in HEK293 cells; conditions: pH 7.4
# Procedure: as §1, §2, §3, §4
# [4] = HEK293 cells stably expressing human Nav1.5 (SCN5A)
# Sequence of human recombinant sodium ion channel Nav1.5 (hNav1.5), late current (Q14524 whole entry): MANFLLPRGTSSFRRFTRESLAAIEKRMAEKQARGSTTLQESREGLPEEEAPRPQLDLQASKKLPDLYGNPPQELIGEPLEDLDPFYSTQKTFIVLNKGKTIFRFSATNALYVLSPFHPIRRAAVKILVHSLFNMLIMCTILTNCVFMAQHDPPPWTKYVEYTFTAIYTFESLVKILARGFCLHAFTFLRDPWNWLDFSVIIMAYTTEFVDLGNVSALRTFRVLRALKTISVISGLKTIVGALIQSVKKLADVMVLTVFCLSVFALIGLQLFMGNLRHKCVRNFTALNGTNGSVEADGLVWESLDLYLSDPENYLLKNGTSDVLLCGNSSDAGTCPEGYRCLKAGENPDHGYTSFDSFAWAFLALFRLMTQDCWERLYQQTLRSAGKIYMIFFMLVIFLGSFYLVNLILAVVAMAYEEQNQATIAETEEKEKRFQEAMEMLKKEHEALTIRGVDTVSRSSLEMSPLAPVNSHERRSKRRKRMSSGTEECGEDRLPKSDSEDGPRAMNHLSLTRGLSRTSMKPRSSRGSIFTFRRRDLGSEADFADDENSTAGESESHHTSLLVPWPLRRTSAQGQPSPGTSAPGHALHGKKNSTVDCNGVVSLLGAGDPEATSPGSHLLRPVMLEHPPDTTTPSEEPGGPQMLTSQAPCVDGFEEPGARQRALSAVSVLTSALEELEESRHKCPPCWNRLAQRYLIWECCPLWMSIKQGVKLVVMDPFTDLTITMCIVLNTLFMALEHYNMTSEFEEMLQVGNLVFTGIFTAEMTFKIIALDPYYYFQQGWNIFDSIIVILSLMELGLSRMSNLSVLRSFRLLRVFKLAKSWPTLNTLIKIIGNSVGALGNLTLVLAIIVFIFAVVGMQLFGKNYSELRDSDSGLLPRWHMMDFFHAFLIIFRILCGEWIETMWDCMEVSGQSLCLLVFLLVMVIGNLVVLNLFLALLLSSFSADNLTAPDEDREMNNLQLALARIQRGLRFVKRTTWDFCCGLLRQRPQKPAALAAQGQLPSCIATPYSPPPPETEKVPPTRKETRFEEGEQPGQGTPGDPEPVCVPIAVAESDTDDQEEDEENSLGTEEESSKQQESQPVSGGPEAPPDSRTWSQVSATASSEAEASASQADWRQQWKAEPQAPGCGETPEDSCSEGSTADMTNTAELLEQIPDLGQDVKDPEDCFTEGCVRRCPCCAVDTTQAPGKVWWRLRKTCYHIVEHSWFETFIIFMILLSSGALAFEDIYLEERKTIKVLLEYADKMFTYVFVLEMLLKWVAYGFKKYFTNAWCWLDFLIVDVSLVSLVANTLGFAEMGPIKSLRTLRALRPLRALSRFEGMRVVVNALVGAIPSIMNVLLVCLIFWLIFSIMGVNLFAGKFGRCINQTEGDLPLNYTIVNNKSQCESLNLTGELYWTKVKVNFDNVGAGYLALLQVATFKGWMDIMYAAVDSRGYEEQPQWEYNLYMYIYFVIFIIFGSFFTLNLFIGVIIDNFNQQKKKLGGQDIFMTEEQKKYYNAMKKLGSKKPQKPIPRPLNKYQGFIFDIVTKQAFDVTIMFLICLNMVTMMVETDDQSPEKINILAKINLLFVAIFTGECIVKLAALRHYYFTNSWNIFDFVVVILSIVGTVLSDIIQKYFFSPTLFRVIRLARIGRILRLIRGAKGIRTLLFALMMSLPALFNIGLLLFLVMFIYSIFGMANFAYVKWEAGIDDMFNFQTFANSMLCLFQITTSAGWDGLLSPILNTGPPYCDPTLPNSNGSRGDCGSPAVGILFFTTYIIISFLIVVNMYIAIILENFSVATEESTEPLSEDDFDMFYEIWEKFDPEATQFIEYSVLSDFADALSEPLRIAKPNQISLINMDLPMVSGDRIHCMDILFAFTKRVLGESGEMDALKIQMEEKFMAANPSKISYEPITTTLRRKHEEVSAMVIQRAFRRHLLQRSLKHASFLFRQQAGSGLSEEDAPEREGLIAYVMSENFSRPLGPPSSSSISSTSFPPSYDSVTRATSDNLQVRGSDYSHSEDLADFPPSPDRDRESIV
# Sequence of hNav1.5 sodium channel, fast current (Q14524 whole entry): as above
Structure (SMILES),Inhibition ratio of late current/fast current ([1]; 10 μM),Inhibition ratio of late current/fast current ([1]; 30 μM),Inhibition ratio of late current/fast current ([1]; 100 μM),Inhibition ratio of late current/fast current ([1]; 300 μM),"inhibition at 10 μM [2, 4]","inhibition at 30 μM [2, 4]","inhibition at 100 μM [2, 4]","inhibition at 300 μM [2, 4]","inhibition at 10 μM [3, 4]","inhibition at 30 μM [3, 4]","inhibition at 100 μM [3, 4]","inhibition at 300 μM [3, 4]",further results
NC(=O)N1c2ccccc2C=Cc2ccccc21 [Carbamazepine],2.6,2.9,2.7,1.7,20.4%,36.2%,65.4%,86.9%,7.7%,12.3%,24.5%,51.4%,
"Nc1nnc(-c2cccc(Cl)c2Cl)c(N)n1 [Lamotrigine, lamotrigine]",1.3,2.0,2.0,1.6,10.7%,32.9%,56.7%,80.1%,8.3%,16.6%,29%,51.2%,
"NC(=O)O[C@@H](Cn1ncnn1)c1ccccc1Cl [Test compound, carbamic acid (R)-1-(2-chlorophenyl)-2-tetrazol-2-yl-ethyl ester]",3.8,4.2,2.6,1.9,,,,,,,,,"Selectivity of inhibition of late versus fast sodium current (in words) ([1]; at a concentration in the drug effective concentration range, compared to the comparative compounds): inhibited the late sodium current more selectively than the fast sodium current; inhibition at 10 μM [2]: 11.4%; inhibition at 30 μM [2]: 24%; inhibition at 100 μM [2]: 33.9%; inhibition at 300 μM [2]: 49.8%; inhibition at 10 μM [3]: 3%; inhibition at 30 μM [3]: 5.7%; inhibition at 100 μM [3]: 13%; inhibition at 300 μM [3]: 26.2%"

# Source: patent US11406620B2, “Use of carbamate compound for preventing or treating diseases associated with increase in late sodium current” (SK BIOPHARMACEUTICALS CO., LTD., priority 2017, dated 2022)
